We go through 14 molecules from US20080286388A1, “Pharmaceutical Composition and Non Dependence Coffee Comprising Edible Carboxylic Acid and/or Its Acid Salts and Coffeine” (priority 2004, published 2008).

Assay [1] deals with mouse's leaching cell solution (abdominal cavity cells), histamine release by 48/80 compound. As to the kind of experiment: Drug inhibiting effect on histamine leaching from mouse abdominal cavity cells treated with 48/80 compound. The class given is cell-based. Particulars: for inhibition at 100 µg/mL / IC50 / inhibition at 2 µg/mL / inhibition at 5 µg/mL / inhibition at 10 µg/mL / inhibition at 50 µg/mL / inhibition at 300 µg/mL / inhibition at 1000 µg/mL: Mus musculus; for IC50: calculated by figure, read-out: IC50 value (concentration for inhibiting rate of 50%). The procedure:
This is a comparative testing for drug depressing effect on the amount of leaching histamines when is treated with 48/80 (Sigma, St. MO, USA) compound.
(1). Preparation of Leaching Cell Solution from Mouse Body.
A mouse is killed and bloodletting. Then 10 ml of Locke's solution containing 0.1% bovine serum protein is injected into its abdominal cavity. After abdominal cavity being light massaged, the cavity is cut and the Locke's solution is removed. Cavity is washed with another 5 ml of Locke's solution, and this washed solution is added to the latter one. This combined solution is centrifuged at 600 rpm for 5 minutes. The sediments are washed with 5 ml of cool Locke's solution. Adding 3 ml of cold Locke's solution to the washed sediments, then a leached cell solution of abdominal cavity is obtained. (The composition of Locke's solution is: NaCL […], KCL 0.2%, CaCL2 0.15%, glucose 1.0%, in w/v, and the rest distillated water.)
(2). Drug Inhibiting Effect on the Amount of Leaching Histamines when Treated with 48/80 Compound.
1.0 ml of each of those solutions in last term is mixed with 0.3 ml of mouse's leaching cell solution and 0.5 ml of Locke's solution. This mixture is cultivated at 37° C. for 5 minutes. Then adding 0.2 ml of Locke's solution of 48/80 compound (1 mg/100 ml) and cultivated at 37° C. for 10 minutes. Then the reaction is stopped by cooling, and centrifuged at 2,500 rpm for 10 minutes. 1.7 ml of decanted solution and 0.3 ml of sediments are obtained.
0.1 ml of water and 0.2 ml of 100% trichloroacetic acid are added to the decanted solution. 1.5 ml of Locke's solution and 0.2 ml of 100% trichloroacetic acid are added to the sediments washed solution. They are cultivated at room temperature for 30 minutes. After cultivation, the mixtures are centrifuged at 3,000 rpm for 15 minutes, respectively. 0.35 ml of each of the former two solutions is sampled. In each sample, 1.65 ml of water, 0.4 ml of 1N NaOH and 0.1 ml of 0.5% OPT (o-phthalic aldehyde) in methanol are added and cultivated at room temperature for 4 minutes. The reaction is stopped by adding 0.2 ml of 2M citric acid. And finally, determine the amount of released histamines in the tested solution by fluorescence method. By the analysis, results of the inhibiting rate of histamines could be calculated.
Locke's solution is instead of each drug in control group, and instead of both drug and 48/80 compound solution in blank group.
The histamine releasing rate (A) can be calculated by following equation. […] Where (Hs) is the total amount of histamine in the decanted solution, and (Hr) is the total amount of histamine in the sediment. (A)=[(Hs)/{(Hs)+(Hr)}]×100%. Then the inhibiting rate is:
=100−[(A−A in blank group)/(A−A in control group)]×100%.

The next assay concerns mice. The assay is described as follows: Anti-delayed type allergy reaction, oxazolone ear inflammation. The assay is classed as in vivo, mouse. The following applies: drug 2.0 w/v % in oxazolone acetone solution, 10 μl on right ear, 24 hr; for Inhibiting rate (%) (adding 0.1 w/v % of drug): with 0.1 w/v % of caffeine; for Inhibiting rate (%) (non-caffeine added): without caffeine. The protocol:
The weights of testing mice are ranging from 20 g to 30 g. They are coated with 0.1 ml of oxazolone alcohol solution (0.5 w/v %) on the hair cleaned part of abdomen. […] After 24 hr, the mouse is killed by ether and punched a circle area of a diameter of 5.5 mm on both right and left ears in corresponding part by a puncher machine (portions of drug coated and the blank). The punched portions are weighed and the inflammation rates calculated. The control group are coated only with the oxazolone acetone solution (0.5 w/v %). The inflammation inhibiting rates of each drug are calculated by following equation: Inflammation inhibiting rate (%)=[(weight of drug-coated right ear)−(weight of non-drug-coated left ear)]×100%/(weight of non-drug-coated left ear)

For the next assay, the system named is person. The assay is described as follows: Tests for increase the ability of learning and memory. The assay is classed as in vivo, human. Particulars: three pieces of 600 mg, average of four tests before and after ingesting; for change in vivo at 1800 mg: Homo sapiens, po, read-out: Increase rate (%) of memory ability. The protocol:
A person administrates see a random series of 100 numbers, typed by PC, for 10 minutes and memory it. Then recite and write down the memorized number series. To check the recited series with the original one to see how many numbers are correct. In each testing at least has 10 minutes interval, and repeat four times. […] Each kind of drugs testing is done in half day, morning or afternoon only. The testing results were counted by one correct number for one point. Make the average value of four times testing of before and after drug ingesting, respectively. The increase of learning or memory ability is calculated by following equation and listed in Table 14: Rate of increase of memory ability=[(average value of four time testing before ingesting drug)−(average value of four times testing after ingesting drug)]×100%/(average value of four time testing before ingesting drug)

[2] abbreviates: testing drug 100 μg/ml, adding 5% of coffee extract, read-out: inhibiting rate (%) (adding 5% of coffee extract).
The mark [3] stands for this setting: testing drug 100 μg/ml, non adding coffee extract, read-out: Inhibiting rate (%) (non adding coffee extract).
Setting [4] is: testing drug 100 μg/ml, adding 5% of coffee extract.
Where [5] appears, read: testing drug 100 μg/ml, non adding coffee extract.

SMILES strings stand for the structures. ≈ marks a conversion by molar mass, not a printed value. Structures can show the parent of a compound that is named as a salt. Where two headings read alike, the source gives them in different places.

In the case of `O=C(O)CC(O)(CC(=O)O)C(=O)O` [Citric acid], the inhibition at 100 µg/mL in assay [1] (setting [2]) was 100%. Also, in assay [1] (setting [3]), the inhibition at 100 µg/mL stood at 100%. For the same molecule, in the assay with mice, the “Inhibiting rate (%) (adding 0.1 w/v % of drug)” value came out at 100% and the “Inhibiting rate (%) (non-caffeine added)” value amounted to 100%. In addition, in the assay with person, the change in vivo at 1800 mg amounted to 360%.

Regarding `CN(C)CCOC(c1ccccc1)c1ccccc1` [Diphenhydramine hydrochloride, reference compound], the inhibition at 100 µg/mL in assay [1] (setting [2]) was 50.4%. Besides, the inhibition at 100 µg/mL in assay [1] (setting [3]) came out at 32.1%. Besides, in the assay on mice, the “Inhibiting rate (%) (adding 0.1 w/v % of drug)” value turned out to be 20% and the “Inhibiting rate (%) (non-caffeine added)” value worked out at 20%.

As for `O=C(O)/C=C/C(=O)O` [Fumaric acid], the inhibition at 100 µg/mL in assay [1] (setting [2]) was 100%. In assay [1] (setting [3]), the inhibition at 100 µg/mL turned out to be 100%. Moreover, in the assay with mice, the “Inhibiting rate (%) (adding 0.1 w/v % of drug)” value amounted to 100% and the “Inhibiting rate (%) (non-caffeine added)” value came to 98%. Also, the change in vivo at 1800 mg in the assay with person was found to be 300%.

With `CC(O)C(=O)O` (stereo not drawn) [Lactic acid], the inhibition at 100 µg/mL in assay [1] (setting [2]) stood at 100%. Besides, the inhibition at 100 µg/mL in assay [1] (setting [3]) came out at 100%. Besides, in the assay on mice, the “Inhibiting rate (%) (adding 0.1 w/v % of drug)” value came to 98% and the “Inhibiting rate (%) (non-caffeine added)” value came to 97%. Besides, the change in vivo at 1800 mg with person is 280%.

Take `O=C(O)CCC(=O)O` [Succinic acid]: the IC50 in assay [1] (adding 5% of coffee extract) was 5.8 µg/mL (≈ 49.1 µM); in assay [1] (non-adding coffee extract), 7 µg/mL (≈ 59.3 µM). For the same molecule, the inhibition at 2 µg/mL was determined as 24.9% in assay [1] (dose 2 μg/ml, adding 5% of coffee extract, read-out: Inhibiting rate (%)) and 17.9% in assay [1] (dose 2 μg/ml, non-adding coffee extract, read-out: Inhibiting rate (%)). The inhibition at 5 µg/mL in assay [1] (dose 5 μg/ml, adding 5% of coffee extract, read-out: Inhibiting rate (%)) turned out to be 43.6%; in assay [1] (dose 5 μg/ml, non-adding coffee extract, read-out: Inhibiting rate (%)), 37.7%. Further, the inhibition at 10 µg/mL in assay [1] (dose 10 μg/ml, adding 5% of coffee extract, read-out: Inhibiting rate (%)) is 87.9%; in assay [1] (dose 10 μg/ml, non-adding coffee extract, read-out: Inhibiting rate (%)) it was 84%. Moreover, the inhibition at 50 µg/mL was found to be 100% in assay [1] (dose 50 μg/ml, adding 5% of coffee extract, read-out: Inhibiting rate (%)) and 100% in assay [1] (dose 50 μg/ml, non-adding coffee extract, read-out: Inhibiting rate (%)). The inhibition at 100 µg/mL came to 100% in assay [1] (dose 100 μg/ml, adding 5% of coffee extract, read-out: Inhibiting rate (%)); 100% in assay [1] (dose 100 μg/ml, non-adding coffee extract, read-out: Inhibiting rate (%)); 100% in assay [1] (setting [2]); 100% in assay [1] (setting [3]). For the same molecule, the inhibition at 300 µg/mL came out at 100% in assay [1] (dose 300 μg/ml, adding 5% of coffee extract, read-out: Inhibiting rate (%)) and 100% in assay [1] (dose 300 μg/ml, non-adding coffee extract, read-out: Inhibiting rate (%)). The inhibition at 1000 µg/mL in assay [1] (dose 1000 μg/ml, adding 5% of coffee extract, read-out: Inhibiting rate (%)) stood at 100%; in assay [1] (dose 1000 μg/ml, non-adding coffee extract, read-out: Inhibiting rate (%)), 100%. Besides, the “Histamine releasing rate (%)” value was 70.5% in assay [1] (dose 2 μg/ml, adding 5% of coffee extract); 76.2% in assay [1] (dose 2 μg/ml, non-adding coffee extract); 55.3% in assay [1] (dose 5 μg/ml, adding 5% of coffee extract); 60.1% in assay [1] (dose 5 μg/ml, non-adding coffee extract); 19.3% in assay [1] (dose 10 μg/ml, adding 5% of coffee extract); 22.5% in assay [1] (dose 10 μg/ml, non-adding coffee extract). The “Histamine releasing rate (%)” value amounted to 9.1% in assay [1] (dose 50 μg/ml, adding 5% of coffee extract); 9.1% in assay [1] (dose 50 μg/ml, non-adding coffee extract); 9.3% in assay [1] (dose 100 μg/ml, adding 5% of coffee extract); 9.3% in assay [1] (dose 100 μg/ml, non-adding coffee extract); 9.4% in assay [1] (dose 300 μg/ml, adding 5% of coffee extract); 9.4% in assay [1] (dose 300 μg/ml, non-adding coffee extract). In addition, the “Histamine releasing rate (%)” value is listed as 9.4% in assay [1] (dose 1000 μg/ml, adding 5% of coffee extract) and 9.4% in assay [1] (dose 1000 μg/ml, non-adding coffee extract). The change in vivo at 1800 mg in the assay on person is 330%.

`O=C(O)C(O)C(O)C(=O)O` (stereo not drawn) [Tartaric acid]: the inhibition at 100 µg/mL in assay [1] (setting [2]) and in assay [1] (setting [3]) was 100% in each case. The “Inhibiting rate (%) (adding 0.1 w/v % of drug)” value in the assay with mice was 99%. In addition, the “Inhibiting rate (%) (non-caffeine added)” value with mice is on record as 97%. In the assay on person, the change in vivo at 1800 mg was found to be 305%.

Regarding `CC(=O)O` [acetic acid], the inhibition at 100 µg/mL in assay [1] (setting [2]) and in assay [1] (setting [3]) was 100% throughout. Moreover, in the assay with person, the change in vivo at 1800 mg came to 307%.

In the case of `O=C(O)C=C(CC(=O)O)C(=O)O` [aconitic acid], the inhibition at 100 µg/mL worked out at 40% in assay [1] (setting [2]) and 100% in assay [1] (setting [3]). Moreover, the change in vivo at 1800 mg with person turned out to be 315%.

As for `O=C1O[C@H](CO)[C@@H](O)[C@H](O)[C@H]1O` [gluconolactone], the inhibition at 100 µg/mL in assay [1] (setting [2]) and in assay [1] (setting [3]) was 100% throughout. The change in vivo at 1800 mg in the assay with person was determined as 290%.

In the case of `O=C(O)CCC(=O)C(=O)O` [keto-glutaric acid], the “inhibiting rate (%) (adding 5% of coffee extract)” value in assay [1] (setting [4]) is 100%. In addition, the “Inhibiting rate (%) (non adding coffee extract)” value in assay [1] (setting [5]) worked out at 100%. For the same molecule, the “Increase rate (%) of memory ability” value in the assay with person turned out to be 321%.

On to `O=C(O)CC(=O)C(=O)O` [oxalacetic acid], for which the inhibition at 100 µg/mL in assay [1] (setting [2]) and in assay [1] (setting [3]) was 100% each time. Besides, in the assay on person, the change in vivo at 1800 mg was found to be 310%.

`CCC(=O)O` [propionic acid]: the inhibition at 100 µg/mL in assay [1] (setting [2]) and in assay [1] (setting [3]) was 100% in each case. Further, the change in vivo at 1800 mg with person was found to be 296%.

For `O=C(O)CO` [α-hydroxy ethanoic acid], the “inhibiting rate (%) (adding 5% of coffee extract)” value in assay [1] (setting [4]) is 100%. The “Inhibiting rate (%) (non adding coffee extract)” value in assay [1] (setting [5]) is listed as 100%. The “Increase rate (%) of memory ability” value in the assay with person turned out to be 300%.

For `CCCCCCC(O)C(=O)O` (stereo not drawn) [α-hydroxy octanoic acid], the inhibition at 100 µg/mL in assay [1] (setting [2]) and in assay [1] (setting [3]) was 100% each time. For the same molecule, the change in vivo at 1800 mg with person came to 300%.
